Test results published in paper PMC11206988, “Study on the Effect of Pharmaceutical Excipient PEG400 on the Pharmacokinetics of Baicalin in Cells Based on MRP2, MRP3, and BCRP Efflux Transporters” (Pharmaceutics, 2024).

Tests used:
[1] = tested on: HepG2 cells; test: Pharmacokinetic study of baicalin in HepG2 cells (intracellular concentrations by UPLC-MS/MS); type: in vitro ADME, human; conditions: for AUC0–t increase compared with the control group: HepG2 cells
Protocol: (§1) The samples were quantified by UPLC-MS/MS, which consisted of a Dionex Ultimate 3000 UPLC system (Thermo Fisher Scientific, Waltham, MA, USA) and a triple quadrupole tandem mass spectrometer (Thermo Fisher Scientific, Waltham, MA, USA). The mass spectrometry was performed using an ESI ion source and in positive ion mode. The chromatograms are shown in Figure S1 of the Supplementary Materials. The samples were analyzed by a Waters XBridge BEH C18 column (2.1 × 100 mm). Mobile phase A consists of acetonitrile, while mobile phase B consists of water containing 0.1% formic acid. The elution program was as follows: B was initially 90%, 0 to 9 min B decreased from 90% to 27%, and 9.1 min to 12 min increased from 27% to 90% B. The flow rate of the mobile phase was 0.3 mL/min, the temperature of the automatic injector was 5 °C, and the injection volume was 10 μL. The m/z for BG and B6G was 447 → 271, for baicalein m/z 271 → 123, and for genistein (IS) m/z 271 → 153. Other mass spectrometry parameters included sheath gas (Arb) pressure, 20 psi, and auxiliary gas (Arb) pressure, 2 psi; source voltage, 4.8 KV, and capillary voltage, 2.5 KV; and ion-transfer-tube temperature, 375 °C, and atomization temperature, 275 °C.
(§2) HepG2 cells were cultured at a density of 1×10^5 cells/mL in 12-well plates for 24 h to facilitate the conduct of cellular pharmacokinetic experiments. The old medium was aspirated and discarded, the wells were rinsed twice with PBS, and 1 mL of 100 μM baicalin and baicalin + PEG400 (0.25%, 0.5%, and 1%) was added into 12-well plates to initiate the timer. The culture was terminated after 0.25 h, 0.5 h, 1 h, 2 h, 4 h, 6 h, 8 h, 10 h, 12 h, and 24 h, respectively. Upon reaching the designated time for administration, the cell culture medium was removed, and the wells were washed with 1 mL of cold PBS solution. Subsequently, 240 μL of ultra-pure water were added to each well, and the sample was stored at −80 °C until analysis. The sample was subjected to sonication in an ice bath for 10 min in order to lyse the cells, thereby enabling the determination of the accumulated drug concentration within the cells. Subsequently, 20 μL of the cell lysate was collected, and the protein concentration was quantified using a BCA kit for normalization.
(§3) After repeated freeze-thaw lysis, 100 μL of cell samples were taken, and 300 μL of 0.2% formic acid acetonitrile (containing 200 ng/mL genistein) were added to the vortex for 10 min to precipitate proteins and then centrifuged at 14,000 r/min for 10 min. Then the supernatant was blown dry under nitrogen at 40 °C and then reconstituted with 200 μL of methanol and centrifuged at 14,000 rpm for 10 min. The supernatant was subjected to UPLC-MS/MS analysis.

[2] = as above; type: in vitro ADME, human; conditions: human, intracellular; for AUC(0-t) at 100 μM / Cmax at 100 μM / half-life at 100 μM: HepG2 cells
Protocol: as §1, §2, §3

[3] = HepG2 cells given 100 μM baicalin + H PEG400 (1%)
[4] = HepG2 cells given 100 μM baicalin + L PEG400 (0.25%)
[5] = HepG2 cells given 100 μM baicalin + M PEG400 (0.5%)
[6] = HepG2 cells given 100 μM baicalin alone (group BG, control)

Tmax ([1]; human) | t1/2 ([1]; human) | SMILES | AUC0–t increase compared with the control group ([1]; baicalin + high PEG400 (1%) vs baicalin alone) | AUC0–t increase compared with the control group ([1]; baicalin + low PEG400 (0.25%) vs baicalin alone) | AUC0–t increase compared with the control group ([1]; baicalin + medium PEG400 (0.5%) vs baicalin alone) | AUC(0-t) at 100 μM [2, 3] | Cmax at 100 μM [2, 3] | half-life at 100 μM [2, 3] | AUC(0-t) at 100 μM [2, 4] | Cmax at 100 μM [2, 4] | half-life at 100 μM [2, 4] | AUC(0-t) at 100 μM [2, 5] | Cmax at 100 μM [2, 5] | half-life at 100 μM [2, 5] | Cmax at 100 μM [2, 6] | half-life at 100 μM [2, 6] | AUC(0-t) at 100 μM ([2]; HepG2 cells given 100 μM baicalin alone (group BG, control), 0.25-24 h) | Tmax at 100 μM [2, 6]
6.00 h | 5.19 ± 2.37 h | O=C(O)[C@H]1O[C@@H](Oc2c(O)cc3oc(-c4ccccc4)cc(=O)c3c2O)[C@H](O)[C@@H](O)[C@@H]1O [B6G, Baicalein-6-O-β-D-glucuronide] | – | – | – | – | – | – | – | – | – | – | – | – | – | – | – | –
– | – | O=c1cc(-c2ccccc2)oc2cc(O)c(O)c(O)c12 [B, baicalein] | 1.27 fold | 1.26 fold | 1.23 fold | 5.64 ± 0.07 µg·h/mL | 0.51 ± 0.01 µg/mL | 6.43 ± 1.85 h | 5.61 ± 0.09 µg·h/mL | 0.55 ± 0.07 µg/mL | 3.73 ± 0.54 h | 5.48 ± 0.118 µg·h/mL | 0.53 ± 0.06 µg/mL | 9.4 ± 8.73 h | 0.35 ± 0.12 µg/mL | 17.6 ± 7.99 h | 4.45 ± 0.06 µg·h/mL | 6 h
